Experimental data reported in patent US7205295B2, “Benzoxazin-3-ones and derivatives thereof as therapeutic agents” (Warner-Lambert Company LLC, priority 2002, dated 2007).

Legend:
[1] = target: T1, PI3Kγ (p101/p110γ protein) (Homo sapiens, UniProt P48736); assay: PI3Kγ In Vitro Kinase Assay; type: biochemical; conditions: purified recombinant p101/p110γ with G protein β1/γ2 subunits; 20 μM ATP, 25 μM PIP2; 20 minutes at room temperature
T1 construct: HA; made in house; host or cells: Spodoptera frugiperda (Sf9) cells, baculovirus co-infection
T1 sequence (P48736 whole entry, species assumed): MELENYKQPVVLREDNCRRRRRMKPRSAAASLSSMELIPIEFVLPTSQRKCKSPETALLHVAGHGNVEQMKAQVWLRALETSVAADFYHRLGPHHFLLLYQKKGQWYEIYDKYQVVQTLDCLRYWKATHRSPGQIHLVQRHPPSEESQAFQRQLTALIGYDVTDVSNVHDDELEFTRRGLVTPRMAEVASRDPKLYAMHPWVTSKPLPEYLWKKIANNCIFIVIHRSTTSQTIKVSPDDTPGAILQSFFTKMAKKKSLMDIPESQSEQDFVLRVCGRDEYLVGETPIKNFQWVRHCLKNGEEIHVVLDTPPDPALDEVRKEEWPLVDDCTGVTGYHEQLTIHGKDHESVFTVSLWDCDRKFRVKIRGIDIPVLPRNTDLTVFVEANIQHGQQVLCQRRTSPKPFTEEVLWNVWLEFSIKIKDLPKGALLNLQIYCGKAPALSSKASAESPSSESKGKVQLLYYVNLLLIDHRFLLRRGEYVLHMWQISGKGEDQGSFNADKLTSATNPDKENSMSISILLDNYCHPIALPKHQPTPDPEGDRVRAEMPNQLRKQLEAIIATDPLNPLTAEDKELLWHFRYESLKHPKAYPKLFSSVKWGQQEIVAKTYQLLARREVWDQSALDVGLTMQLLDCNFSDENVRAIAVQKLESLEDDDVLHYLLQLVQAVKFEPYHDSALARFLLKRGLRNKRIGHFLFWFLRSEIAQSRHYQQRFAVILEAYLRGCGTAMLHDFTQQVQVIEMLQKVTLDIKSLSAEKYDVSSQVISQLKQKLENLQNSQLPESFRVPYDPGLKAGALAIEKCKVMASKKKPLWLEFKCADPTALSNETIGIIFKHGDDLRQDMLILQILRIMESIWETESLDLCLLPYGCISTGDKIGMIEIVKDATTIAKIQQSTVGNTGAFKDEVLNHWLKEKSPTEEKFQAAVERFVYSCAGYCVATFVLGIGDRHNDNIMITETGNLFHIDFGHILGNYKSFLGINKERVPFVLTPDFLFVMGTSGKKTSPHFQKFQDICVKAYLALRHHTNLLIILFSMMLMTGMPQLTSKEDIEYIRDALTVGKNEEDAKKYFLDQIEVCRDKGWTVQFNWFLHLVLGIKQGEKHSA
T1 sequence (Q8WYR1 whole entry partner, species assumed): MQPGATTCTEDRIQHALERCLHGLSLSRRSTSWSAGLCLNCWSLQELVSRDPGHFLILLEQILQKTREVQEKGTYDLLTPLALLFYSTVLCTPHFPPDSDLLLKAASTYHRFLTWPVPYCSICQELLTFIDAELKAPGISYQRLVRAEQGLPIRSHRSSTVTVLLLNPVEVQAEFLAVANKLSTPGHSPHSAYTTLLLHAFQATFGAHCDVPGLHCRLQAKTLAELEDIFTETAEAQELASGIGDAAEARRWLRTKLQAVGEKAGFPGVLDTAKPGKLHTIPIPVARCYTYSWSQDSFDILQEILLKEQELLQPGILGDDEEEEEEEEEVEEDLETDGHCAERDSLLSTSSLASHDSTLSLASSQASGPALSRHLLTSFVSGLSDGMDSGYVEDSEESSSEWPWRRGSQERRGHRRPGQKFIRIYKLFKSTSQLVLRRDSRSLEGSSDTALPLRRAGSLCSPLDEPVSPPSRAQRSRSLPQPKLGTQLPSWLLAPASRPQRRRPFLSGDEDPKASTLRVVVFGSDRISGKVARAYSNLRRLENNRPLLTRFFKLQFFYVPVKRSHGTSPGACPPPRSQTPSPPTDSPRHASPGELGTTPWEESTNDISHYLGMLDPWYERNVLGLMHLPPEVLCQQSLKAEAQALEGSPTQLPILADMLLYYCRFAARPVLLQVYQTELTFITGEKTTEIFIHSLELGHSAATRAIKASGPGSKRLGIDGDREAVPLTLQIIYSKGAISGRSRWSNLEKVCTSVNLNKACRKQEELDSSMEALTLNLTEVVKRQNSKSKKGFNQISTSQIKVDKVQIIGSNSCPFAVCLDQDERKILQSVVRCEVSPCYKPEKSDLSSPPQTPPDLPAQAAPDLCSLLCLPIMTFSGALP
In short: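 Reactions ran 20 min at room temperature, pairing lipid micelles (25 μM PIP2, 300 μM PE, 0.02% Na-cholate, 10 mM MgCl2) with 20 μM ATP including [γ-32P]ATP. The enzyme was recombinant p101/p110γ (2.7 nM) with G protein β1/γ2 (57.7 nM). [32P]PIP3 product was stopped with H3PO4, filtered and scintillation counted.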

Structure (SMILES)	IC50 [1] [nM]	melting point [°C]
O=C1NC(=S)SC1=Cc1ccc2c(c1)N(CCc1cccc(Cl)c1)C(=O)CO2 [Example 135, 4-[2-(3-Chloro-phenyl)-ethyl]-6-(4-oxo-2-thioxo-thiazolidin-5-ylidenemethyl)-4H-1,4-benzoxazin-3-one]	5	280 to 282
O=C1NC(=S)SC1=Cc1ccc2c(c1)N(OCc1ccccc1)C(=O)CO2 [Example 90, 4-Benzyloxy-6-(4-oxo-2-thioxo-thiazolidin-5-ylidenemethyl)-4H-benzo[1,4]oxazin-3-one]	4	> 300
O=C1NC(=S)SC1=Cc1ccc2c(c1)N(CCc1ccc(C(F)(F)F)cc1)C(=O)CO2 [Example 104, 6-(Oxo-2-thioxo-thiazolidin-5-ylidenmethyl)-4-[2-(4-trifluoromethyl-phenyl)-ethyl]-4H-benzo[1,4]oxazin-3-one]	2	253 to 255
Cc1cccc(CN2C(=O)COc3ccc(C=C4SC(=S)NC4=O)cc32)c1C [Example 98, 4-(2,3-Dimethyl-benzyl)-6-(4-oxo-2-thioxo-thiazolidin-5-ylidenemethyl)-4H-benzo[1,4]oxazin-3-one]	5	> 300
CC(C)(C)c1ccc(CCN2C(=O)COc3ccc(C=C4SC(=S)NC4=O)cc32)cc1 [Example 131, 4-[2-(4-tert-Butyl-phenyl)-ethyl]-6-(4-oxo-2-thioxo-thiazolidin-5-ylidenemethyl)-4H-benzo[1,4]-oxazin-3-one]	39	283 to 285
Cc1ccc(C)c(CN2C(=O)COc3ccc(C=C4SC(=S)NC4=O)cc32)c1 [Example 99, 4-(2,5-Dimethyl-benzyl)-6-(4-oxo-2-thioxo-thiazolidin-5-ylidenemethyl)-4H-1,4-benzoxazin-3-one]	18	> 300
CC(C)Oc1cc(CN2C(=O)COc3ccc(C=C4SC(=S)NC4=O)cc32)cc(OC(C)C)c1 [Example 94, 4-(3,5-Diisopropoxy-benzyl)-6-(4-oxo-2-thioxo-thiazolidin-5-ylidenemethyl)-4H-benzo[1,4]oxazin-3-one]	29	245 to 247
O=C1NC(=S)SC1=Cc1ccc2c(c1)N(CCc1ccccc1C(F)(F)F)C(=O)CO2 [Example 108, 6-(Oxo-2-thioxo-thiazolidin-5-ylidenmethyl)-4-[2-(2-trifluoromethyl-phenyl)-ethyl]-4H-benzo[1,4]oxazin-3-one]	4	283 to 286
O=C1NC(=S)SC1=Cc1ccc2c(c1)N(CCc1ccc(Cl)c(Cl)c1)C(=O)CO2 [Example 103, 4-[2-(3,4-Dichloro-phenyl)-ethyl]-6-(4-oxo-2-thioxo-thiazolidin-5-ylidenmethyl)-4H-benzo[1,4]oxazin-3-one]	4	267 to 269
CC(C)(C)c1cc(CON2C(=O)COc3ccc(C=C4SC(=S)NC4=O)cc32)cc(C(C)(C)C)n1 [Example 209, 4-(2,6-Di-tert-butyl-pyridin-4-ylmethoxy)-6-(4-oxo-2-thioxo-thiazolidin-5-ylidenemethyl)-4H-benzo[1,4]oxazin-3-one]	74	> 300
CN(C)c1ccc(CCN2C(=O)COc3ccc(C=C4SC(=S)NC4=O)cc32)cc1 [Example 132, 4-[2-(4-Dimethylaniino-phenyl)-ethyl]-6-(4-oxo-2-thioxo-thiazolidin-5-ylidenemethyl)-4H-benzo[1,4]-oxazin-3-one]	12	266 to 268
O=C1NC(=S)SC1=Cc1ccc2c(c1)N(CCc1ccc(Br)cc1)C(=O)CO2 [Example 102, 4-[2-(4-Bromo-phenyl)-ethyl]-6-(4-oxo-2-thioxo-thiazolidin-5-ylidenmethyl)-4H-benzo[1,4]oxazin-3-one]	2	274 to 276
COc1cc(CCN2C(=O)COc3ccc(C=C4SC(=S)NC4=O)cc32)cc(OC)c1 [Example 130, 4-[2-(3,5-Dimethoxy-phenyl)-ethyl]-6-(4-oxo-2-thioxo-thiazolidin-5-ylidenemethyl)-4H-benzo[1,4]oxazin-3-one]	3	267 to 269
COc1ccc(C(C)(C)C)cc1CN1C(=O)COc2ccc(C=C3SC(=S)NC3=O)cc21 [Example 95, 4-(5-tert-Butyl-2-methoxy-benzyl)-6-(4-oxo-2-thioxo-thiazolidin-5-ylidenemethyl)-4H-1,4-benzoxazin-3-one]	225	255 to 257
Cc1ccc(CN2C(=O)COc3ccc(C=C4SC(=S)NC4=O)cc32)cc1C [Example 97, 4-(3,4-Dimethyl-benzyl)-6-(4-oxo-2-thioxo-thiazolidin-5-ylidenemethyl)-4H-1,4-benzoxazin-3-one]	3	> 300
O=C1NC(=S)SC1=Cc1ccc2c(c1)N(Cc1cccc(-c3ccncc3)c1)C(=O)CO2 [Example 114, 6-(4-Oxo-2-thioxo-thiazolidin-5-ylidenemethyl)-4-(3-pyridin-4-yl-benzyl)-4H-benzo[1,4]-oxazin-3-one]	5	297 to 299
COc1cccc(CCN2C(=O)COc3ccc(C=C4SC(=S)NC4=O)cc32)c1 [Example 137, 4-[2-(3-Methoxy-phenyl)-ethyl]-6-(4-oxo-2-thioxo-thiazolidin-5-ylidenemethyl)-4H-1,4-benzoxazin-3-one]	3	233 to 236
O=C1NC(=S)SC1=Cc1ccc2c(c1)N(OCc1ccc(C(F)(F)F)cc1)C(=O)CO2 [Example 207, 6-(4-Oxo-2-thioxo-thiazolidin-5-ylidenemethyl)-4-(4-trifluoromethyl-benzyloxy)-4H-benzo[1,4]oxazin-3-one]	2	> 300
